According to US6706663B2, “Herbicidal 3-heterocyclic substituted benzisothiazole and benzisoxazole compounds” (Wyeth, priority 2000, dated 2004):

Experiments:
[1] = tested on: ECHCG (Echinochloa crus-galli); test: Postemergence herbicidal evaluation; format: in vivo, (L.) Beau
Method in brief: (§1)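 Seedlings grown for about two weeks were sprayed postemergence and then kept under standard greenhouse care. Injury was rated visually 4–5 weeks after treatment on a 0–9 scale against untreated controls, and ratings from repeat tests were averaged.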

[2] = tested on: GLXMAW (Soybean, Williams); test: Postemergence herbicidal evaluation; format: in vivo, Glycine max, (L.) Merr. cv Williams
Method in brief: as §1

[3] = tested on: ZEAMX (Corn, Field); test: Postemergence herbicidal evaluation; format: in vivo, Zea mays, L.
Method in brief: as §1

[4] = tested on: ABUTH (Abutilon theophrasti); test: Preemergence herbicidal evaluation; format: in vivo, Medic.; conditions: preemergence, rated 4-5 weeks after treatment
[5] = tested on: IPOHE (Ipomoea hederacea); test: Preemergence herbicidal evaluation; format: in vivo, (L.) Jacq.; conditions: preemergence, rated 4-5 weeks after treatment
[6] = tested on: GLXMAW (Soybean, Williams); test: Preemergence herbicidal evaluation; format: in vivo, Glycine max, (L.) Merr. cv Williams; conditions: preemergence, rated 4-5 weeks after treatment
[7] = tested on: TRZAWR (Wheat, Winter, cv Riband); test: Preemergence herbicidal evaluation; format: in vivo, Triticum aestivum; conditions: preemergence, rated 4-5 weeks after treatment
Method in brief: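 Each species was sown separately in potting soil over roughly one inch of soil, and the surface sprayed with compound dissolved in aqueous acetone. Assessment used a 0–9 visual scale against a control after four to five weeks.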

[8] = tested on: ZEAMX (Corn, Field); test: Preemergence herbicidal evaluation; format: in vivo, Zea mays, L.; conditions: preemergence, rated 4-5 weeks after treatment
[9] = tested on: ECHORC (Echinochloa oryzoides); test: Flooded paddy, preemergence weed control; format: in vivo, Echinochloa oryzoides (Ard.) Fritsch.; conditions: rated 3-4 weeks after treatment, 0-9 rating scale
Method in brief: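 Greenhouse paddy test, preemergence. Seeds planted in the top 0.5 cm of silt loam soil, which remained flooded at 1.5–3 cm depth. Scored 0-9 by visual comparison with control.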

[10] = tested on: ORYSAT (Rice, Tebonnet); test: Flooded paddy, post-transplant rice tolerance; format: in vivo, Oryza sativa, (L.) Tebonnet; conditions: flooded paddy, post-transplant rice, rated 3-4 weeks after treatment, 0-9 rating scale
Method in brief: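 Visual 0-9 rating against a control, covering stand, vigor, malformation, size, chlorosis and overall appearance. Treatment was applied after transplanting paired ten-day-old seedlings into flooded silt loam, with water kept 1.5 to 3 cm deep on greenhouse benches.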

| Compound | Postemergence herbicidal rating, ECHCG ([1]; rate 0.0320 kg/ha) | Postemergence herbicidal rating, ECHCG ([1]; rate 0.0620 kg/ha) | Postemergence herbicidal rating, GLXMAW ([2]; rate 0.0320 kg/ha) | Postemergence herbicidal rating, GLXMAW ([2]; rate 0.0620 kg/ha) | Postemergence herbicidal rating, ZEAMX ([3]; rate 0.0320 kg/ha) | Postemergence herbicidal rating, ZEAMX ([3]; rate 0.0620 kg/ha) | ABUTH preemergence herbicidal rating ([4]; Rate 0.0620 kg/ha) | ABUTH preemergence herbicidal rating ([4]; Rate 0.1250 kg/ha) | ABUTH preemergence herbicidal rating ([4]; Rate 0.2500 kg/ha) | IPOHE preemergence herbicidal rating ([5]; Rate 0.0620 kg/ha) | IPOHE preemergence herbicidal rating ([5]; Rate 0.1250 kg/ha) | IPOHE preemergence herbicidal rating ([5]; Rate 0.2500 kg/ha) | GLXMAW preemergence herbicidal rating ([6]; Rate 0.0620 kg/ha) | GLXMAW preemergence herbicidal rating ([6]; Rate 0.1250 kg/ha) | GLXMAW preemergence herbicidal rating ([6]; Rate 0.2500 kg/ha) | TRZAWR preemergence herbicidal rating ([7]; Rate 0.0620 kg/ha) | TRZAWR preemergence herbicidal rating ([7]; Rate 0.1250 kg/ha) | TRZAWR preemergence herbicidal rating ([7]; Rate 0.2500 kg/ha) | ZEAMX preemergence herbicidal rating ([8]; Rate 0.0620 kg/ha) | ZEAMX preemergence herbicidal rating ([8]; Rate 0.1250 kg/ha) | other results |
| --- | --- | --- | --- | --- | --- | --- | --- | --- | --- | --- | --- | --- | --- | --- | --- | --- | --- | --- | --- | --- | --- |
| Cn1ccnc1-c1nsc2ccc(-n3c(=O)cc(C(F)(F)F)n(C)c3=O)cc12 [Compound 5, 1-methyl-3-[3-(1-methylimidazol-2-yl)-1,2-benzisothiazol-5-yl]-6-(trifluoromethyl)uracil] | 0.0 | 0.0 | 5.5 | 6.0 | 4.5 | 5.5 | 7.0 | 9.0 | 9.0 | 4.0 | 9.0 | 9.0 | 2.0 | 3.5 | 6.5 | 5.0 | 7.0 | 8.0 | 4.0 | 6.5 | ZEAMX preemergence herbicidal rating ([8]; Rate 0.2500 kg/ha): 7.0; herbicidal rating, ECHORC ([9]; rate 0.0320 kg/ha): 0.0; herbicidal rating, ECHORC ([9]; rate 0.1250 kg/ha): 2.0; herbicidal rating, ORYSAT (rice tolerance) ([10]; rate 0.0320 kg/ha): 2.0; herbicidal rating, ORYSAT (rice tolerance) ([10]; rate 0.1250 kg/ha): 3.0 |
| Cc1csc(-c2nsc3ccc(-n4c(=O)cc(C(F)(F)F)n(C)c4=O)cc23)n1 [Compound 7, 1-methyl-3-[3-(4-methyl-2-thiazolyl)-1,2-benzisothiazol-5-yl]-6-(trifluoromethyl)uracil] | 0.0 | 0.0 | 5.0 | 5.0 | 5.0 | 6.0 | 9.0 | 9.0 | 9.0 | 0.0 | 0.0 | 9.0 | 0.0 | 0.0 | 2.0 | 0.0 | 2.0 | 2.0 | 0.0 | 4.0 | Postemergence herbicidal rating, ECHCG ([1]; rate 0.1250 kg/ha): 0.0; Postemergence herbicidal rating, GLXMAW ([2]; rate 0.1250 kg/ha): 5.5; Postemergence herbicidal rating, ZEAMX ([3]; rate 0.1250 kg/ha): 7.5; ZEAMX preemergence herbicidal rating ([8]; Rate 0.2500 kg/ha): 8.0; herbicidal rating, ECHORC ([9]; rate 0.0080 kg/ha): 0.0; herbicidal rating, ECHORC ([9]; rate 0.0320 kg/ha): 5.0; herbicidal rating, ECHORC ([9]; rate 0.1250 kg/ha): 9.0; herbicidal rating, ORYSAT (rice tolerance) ([10]; rate 0.0080 kg/ha): 3.0; herbicidal rating, ORYSAT (rice tolerance) ([10]; rate 0.0320 kg/ha): 2.0; herbicidal rating, ORYSAT (rice tolerance) ([10]; rate 0.1250 kg/ha): 5.0 |
